Reference: patent US20210205264A1, “USE OF DELTA-TOCOTRIENOL FOR TREATING CANCER” (H. LEE MOFFITT CANCER CENTER & RESEARCH INSTITUTE INC., priority 2018, published 2021)

Key:
[1] = parameters: species or system humans; conditions: in vivo
Description: Two phase I dose-escalation studies were performed determining safety, pharmacokinetics, and pharmacodynamics after twice daily oral administration of d-T3 for 14 consecutive days before surgery in patients with resectable pancreatic exocrine neoplasia and in healthy individuals. […] Based on experience from clinical trials and in animal studies, a dose of 400 mg twice daily was selected for the trial. It should be noted that d-T3 concentration is several times higher in fatty tissues such as the pancreas and colon.

hCAS [2] = target: T1, hCAS (Homo sapiens, UniProt P55060); assay: Competitive affinity-isolation of hCAS in MiaPaCa-2 cell lysate; type: binding; conditions: excess free compound
T1 construct: endogenous in cells; host or cells: MiaPaCa-2 human pancreatic cancer cells
T1 sequence (P55060 1-971): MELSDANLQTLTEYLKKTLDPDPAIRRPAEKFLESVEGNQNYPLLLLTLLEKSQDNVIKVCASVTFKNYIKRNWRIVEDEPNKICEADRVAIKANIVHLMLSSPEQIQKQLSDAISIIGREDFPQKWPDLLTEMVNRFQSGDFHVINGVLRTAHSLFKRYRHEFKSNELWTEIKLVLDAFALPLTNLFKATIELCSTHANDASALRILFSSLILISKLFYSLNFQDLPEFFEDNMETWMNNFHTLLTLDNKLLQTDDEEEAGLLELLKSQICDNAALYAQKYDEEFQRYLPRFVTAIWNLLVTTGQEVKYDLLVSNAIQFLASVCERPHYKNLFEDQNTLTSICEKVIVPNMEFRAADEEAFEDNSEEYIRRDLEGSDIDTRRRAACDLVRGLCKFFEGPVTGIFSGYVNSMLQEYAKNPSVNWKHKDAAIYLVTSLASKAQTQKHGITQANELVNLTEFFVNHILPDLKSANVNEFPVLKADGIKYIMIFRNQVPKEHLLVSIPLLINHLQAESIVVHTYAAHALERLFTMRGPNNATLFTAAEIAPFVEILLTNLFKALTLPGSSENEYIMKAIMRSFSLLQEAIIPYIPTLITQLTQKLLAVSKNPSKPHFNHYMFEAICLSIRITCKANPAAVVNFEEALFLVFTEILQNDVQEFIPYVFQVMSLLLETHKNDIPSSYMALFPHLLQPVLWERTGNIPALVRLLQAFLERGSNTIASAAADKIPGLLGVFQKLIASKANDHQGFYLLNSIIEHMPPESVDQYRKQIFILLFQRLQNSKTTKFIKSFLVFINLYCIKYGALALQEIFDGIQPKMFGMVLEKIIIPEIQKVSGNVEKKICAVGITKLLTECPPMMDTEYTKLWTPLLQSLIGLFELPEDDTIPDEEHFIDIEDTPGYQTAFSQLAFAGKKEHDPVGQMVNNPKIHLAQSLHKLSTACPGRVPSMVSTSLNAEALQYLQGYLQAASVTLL
Description: This experiment used a synthetic biotin-δ-tocotrienol conjugate (shown below to inhibit growth activity of cultured MiaPaca-2 human pancreatic cancer cells) to confirm affinity-isolation of hCAS. To confirm that δ-T3 binds to hCAS in intact cells, biotinylated δ-T3 (B-δ-T3) was prepared by chemically coupling the —OH group of δ-T3 to the —COOH of biotin using a PEG-iodoactamide linker (FIG. 18). […] Affinity-isolation of hCAS was inhibited in the presence of free δ-tocotrienol but not with free δ-tocopherol.

hCAS [3] = target: T1, hCAS; assay: Streptavidin bead capture of hCAS from treated MiaPaCa-2 cells; type: binding; conditions: derived from biotinylated probes
Description: To confirm that δ-T3 binds to hCAS in intact cells, biotinylated δ-T3 (B-δ-T3) was prepared by chemically coupling the —OH group of δ-T3 to the —COOH of biotin using a PEG-iodoactamide linker (FIG. 18).
MiaPaCa-2 human pancreatic cancer cells were treated for 24 hours with biotin alone (B), B-δ-T3 or B-TOCOPH. The cells were then lysed, and the lysates incubated with streptavidin beads, and the captured proteins processed for Western blotting.

NCM-460 = assay: Apoptosis induction in NCM-460; type: cell-based
[4] = test system: MiaPaCa-2 cells stably expressing hCAS; assay: Cell death in MiaPaCa-2 cells stably over-expressing hCAS; type: cell-based, human; conditions: hCAS over-expression, p<0.02
Description: To determine whether hCAS over-expression can rescue from δ-T3 effects, MiaPaCa-2 cells stably expressing hCAS were generated by transfecting these cells with the hCAS gene-containing plasmid pCMV6-AC-GFP (Cat #RG211478, […]) and selecting the cells stably expressing hCAS under G418 pressure. MiaPaCa-2 cells expressing the same plasmid without the hCAS gene were also generated as empty vector control. […] The inability of over-expression to entirely overcome the effect of δ-T3 treatment further illustrates the robustness of a δ-T3 therapeutic approach.

CCSCs = assay: miRNA profiles in CCSCs; type: cell-based, human; conditions: 24-hour treatment; aspirin 5 mM, d-T3 10 μM
Description: Given the results, and without intending to be bound by any theory, it appears that the induction of apoptosis can be one mechanism by which d-T3 prevents CRC and augments CRC prevention activity. BID knockout can diminish this effect. The biorepository as well as materials generated from studies can be used to explore other mechanisms of d-T3 action such as anti-inflammatory, mediation of the immune system, anti-angiogenesis, and alterations in metabolism. To this end, miRNA profiles were conducted that are altered with d-T3, aspirin, and d-T3 with aspirin treatment in CCSCs. To discover early miRNAs that are likely to influence activity, these cells were deliberately treated with doses of these agents at a duration when there were no phenotypic changes of apoptosis.

human CCSCs = assay: Orthotopic (cecum) model of luciferase expressing human CCSCs in NOD-SCID mice; type: in vivo
Description: FIGS. 8A, 8B, 8C, and 8D show growth of cecal tumor volume (FIGS. 8A & 8B) and liver metastasis score (FIGS. 8C & 8D) in orthotopic model of CCSCs after treatment with vehicle, aspirin, d-T3, and aspirin+d-T3.
In vivo model of human CCSC were developed by implanting the stably transfected luciferase expressing CCSCs in the cecum of NOD-SCID mice. In this model, tumor growth, metastasis, and survival are monitored twice weekly by IP injection of luciferin (150 mg/kg body weight) and imaged using the IVIS 200 Bioluminescence imaging system. […] These findings strongly indicate that d-T3 targets CCSCs and enhances the ability of aspirin to target these cells.

CC(C)=CCC/C(C)=C/CC/C(C)=C/CC[C@]1(C)CCc2cc(O)cc(C)c2O1 [d-T3, δ-tocotrienol]
AUC ([1]; human, po): ≤ 175 µM·h
Cmax ([1]; human, po): ≤ 17 µM
half-life ([1]; human, po): approximately 4 hours
dose-limiting toxicities [1]: no dose-limiting toxicities
affinity-isolation of hCAS / hCAS binding to biotin-T3 in presence of free competitor (hCAS [2]): reduces hCAS binding
affinity-isolation of hCAS / hCAS binding to biotin-T3 in presence of free competitor (hCAS [2]; listed as δ-tocotrienol): inhibited
binds hCAS in intact pancreatic cancer cells (hCAS [3]): binds hCAS
apoptosis (NCM-460): no effect
cancer cell death versus the hCAS vehicle [4]: induces significant cancer cell death
down-regulation of miRNAs compared with vehicle (number) (CCSCs): 9 miRNAs
up-regulation of miRNAs compared with vehicle (number) (CCSCs): 7 miRNAs
growth of human CRC stem cells (cecal tumor) (human CCSCs): inhibited
metastases of human CRC stem cells (human CCSCs; liver metastasis): inhibited
